The values below come from patent US5039512A, “NMR imaging with paramagnetic polyvalent metal salts of poly-(acid-alkylene-amino)-alkanes” (Salutar, Inc., priority 1987, dated 1991).

The conditions of data set [1]: in vivo; cited from earlier work.
Data set [2] can be described thus: Relaxivities (T1, T2) of protons in plasma exposed to the complexes. The class given is physicochemical. On the procedure:
(§1) c) Relaxitivities of protons present in water and plasma exposed to the complexes of (a) and (b) (at 10 mHz) (37° C.) in milliseconds:
(§2) c) Relaxivities of protons present in water and plasma exposed to (a) and (b) at 10 mHz (37 C) in milliseconds: […]

Data set [3] in a line: Relaxivities (T1, T2) of protons in water exposed to the complexes. The class given is physicochemical. To be noted: Table 5. On the procedure:
as §1, §2

For data set [4] the following is noted: in vivo.
For data set [5] the following is noted: in vivo; cited from earlier work. The source holds these as a separate data set.
Data set [6] is described as follows: Stability constant (binding ability) towards manganese. As to conditions: relative to the EDTA chelate.
[7] abbreviates: Table 5, 1.56 × 10^-3 moles/liter.
[8] abbreviates: Table 5, 3.13 × 10^-3 moles/liter.
Setting [9] is: Table 5, 6.25 × 10^-3 moles/liter.

In the case of `O=C([O-])CN(CCN(CC(=O)[O-])CC(=O)O)CCN(CC(=O)[O-])CC(=O)O.[Gd+3]` [Gd DTPA, gadolinium chelate of diethylene-triamine-pentaacetic acid], in data set [1], the “Uptake by solid organs” value is recorded as “virtually no uptake by any solid organ”. In addition, the T1 plasma amounted to 877 ms in data set [2] (9.77 × 10^-5 moles/liter); 134 ms in data set [2] (setting [7]); 636 ms in data set [2] (Table 5, 1.95 × 10^-4 moles/liter); 69 ms in data set [2] (setting [8]); 405 ms in data set [2] (Table 5, 3.91 × 10^-4 moles/liter); 39 ms in data set [2] (setting [9]). This compound registered a T1 plasma in data set [2] (Table 5, 7.81 × 10^-4 moles/liter) of 240 ms. For the same compound, the T2 plasma in data set [2] (setting [7]) is 116 ms; in data set [2] (setting [8]), 61 ms; in data set [2] (setting [9]), 31 ms. For the same compound, the T1 water was determined as 163 ms in data set [3] (1.56 × 10^-3 moles/liter); 1015 ms in data set [3] (1.95 × 10^-4 moles/liter); 83 ms in data set [3] (3.13 × 10^-3 moles/liter); 582 ms in data set [3] (3.91 × 10^-4 moles/liter); 40 ms in data set [3] (6.25 × 10^-3 moles/liter); 309 ms in data set [3] (7.81 × 10^-4 moles/liter). Also, the T2 water in data set [3] (1.56 × 10^-3 moles/liter) turned out to be 155 ms; in data set [3] (3.13 × 10^-3 moles/liter) it was 76 ms; in data set [3] (6.25 × 10^-3 moles/liter), 35 ms. The Organ distribution entry in data set [4] is “does not substantially interact with the hepatobiliary system”. Besides, the “Post T1 fat” value in data set [5] is 185 milliseconds. Further, the “Post T1 kidneys” value in data set [5] is recorded as 205 milliseconds. Moreover, in data set [5], the “Post T1 liver” value is 195 milliseconds. Besides, the “Post T1 muscle” value in data set [5] is listed as 335 milliseconds. Moreover, the “Post T1 spleen” value in data set [5] is 285 milliseconds.

On to `O=C(O)CN(CC(=O)O)[C@@H]1CCCC[C@H]1N(CC(=O)O)CC(=O)O` (relative stereo) [DCTA, trans-N,N,N',N'-tetra-carboxymethyl-1,2-diaminocyclohexane], for which, in data set [6], the “Stability constant (binding ability) towards manganese” value is “several thousand times better”.
